Assay results taken from US12559472B2, “Salts of a compound and the crystalline forms thereof” (HUTCHISON MEDIPHARMA LIMITED, priority 2019, dated 2026).
Converted amounts (≈) assume the structure as drawn.

Assays:
[1] = Solubility in buffers with different pHs and in water (Example 19); format: physicochemical; conditions: for solubility at 30 min: 37 °C, thermodynamic from solid
Method: The solubility results were all calculated based on the free form. The buffers with different pHs were prepared according to the United States Pharmacopeia (USP40-NF35).

FGFR = conditions: cited from earlier work

solubility at 30 min ([1]; pH 1.2 buffer (USP), pH 1.2, simulated gastric fluid, pH 1.2 buffer, 30 minutes, calculated based on the free form): 721 µg/mL (≈ 1420 µM) | solubility at 30 min ([1]; pH 2.1 buffer (USP), pH 2.1, aqueous buffer, pH 2.1 buffer, 30 minutes, calculated based on the free form): 174 µg/mL (≈ 342 µM) | solubility at 30 min ([1]; pH 4.5 buffer (USP), pH 4.5, aqueous buffer, pH 4.5 buffer, 30 minutes, calculated based on the free form): ≤ 12600 µg/mL | Solubility ([1]; pH 4.5 buffer, 37° C., 30 minutes, calculated based on the free form): 12588.8 µg/mL (≈ 24700 µM) | solubility at 30 min ([1]; pH 6.8 buffer (USP), pH 6.8, aqueous buffer, pH 6.8 buffer, 30 minutes, calculated based on the free form): 67.5 µg/mL (≈ 133 µM) | solubility at 30 min ([1]; purified water, water, 30 minutes, calculated based on the free form): 2.3 µg/mL (≈ 4.52 µM)
Compound: CNC(=O)c1cc(CCc2cnc(Nc3ccc(N4C[C@@H](C)N[C@@H](C)C4)cc3)nc2)c(Cl)c(OC)c1 [Compound 78, 4-chloro-3-(2-(2-((4-((3S,5R)-3,5-dimethylpiperazin-1-yl)phenyl)amino)pyrimidin-5-yl)ethyl)-5-methoxy-N-methylbenzamide]
Solubility (in words) ([1]; all test media): greatly different solubility in different media | Inhibition of FGFR activity (FGFR): can effectively inhibit FGFR activity
